Source: patent publication US7786083B2, “Metastin derivatives and use thereof” (Takeda Pharmaceutical Company Limited, priority 2006, dated 2010)
*1 amine or outer side, *2 acyl side, *3 side chain or, on linkers, in order; H or OH if unused. Where a SMILES comes first, the peptide text is derived from it. [ ]: non-standard residue; d: D form. Hexanoyl(5S-NH,4S-OH,6-Ph) = O=C(CC[C@H](O)[C@H](Cc1ccccc1)N[*:1])[*:2]; Glyψ(E-CHCH)Leu = CC(C)C[C@H](/C=C/CN[*:1])C(=O)[*:2]; Phe(4-Me) = Cc1ccc(C[C@H](N)C(=O)O)cc1; Arg(Me) = CNC(=N)NCCC[C@H](N)C(=O)O; Dap(CONH2) = NC(=O)NC[C@H](N)C(=O)O; Ala(cPr) = N[C@@H](CC1CC1)C(=O)O; Hyp = O=C(O)[C@@H]1C[C@@H](O)CN1; αMeF = C[C@](N)(Cc1ccccc1)C(=O)O; Cha = N[C@@H](CC1CCCCC1)C(=O)O; Nva = CCC[C@H](N)C(=O)O; Abu = CC[C@H](N)C(=O)O; Dap = NC[C@H](N)C(=O)O; Aib = CC(C)(N)C(=O)O

What follows are compounds tested on metastin receptors (assay: Measurement of agonist activity by assaying changes in intracellular calcium ion level (FLIPR, Fluo-4 NW)). Settings: specific activity of the EC50 of a test compound based on the EC50 of Metastin (45-54), metastin receptor expression CHO cells.
Format: cell-based, human
In short: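 CHO/dhfr⁻ cells stably expressing human or rat metastin receptor, seeded 3×10^4/well for 24 h, loaded with Fluo-4 NW 30 min at 37 °C in HBSS with 0.1% BSA, 20 mM HEPES pH 7.4 and 1 mM probenecid. Compound-stimulated intracellular calcium change read on FLIPR.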

Compound | Specific Activity
CNC(=N)NCCC[C@H](NC(=O)[C@H](CC1CC1)NC(=O)CNC(=O)[C@H](CC1CCCCC1)NC(=O)[C@H](CN)NC(=O)[C@H](CNC(N)=O)NC(=O)[C@@H]1C[C@@H](O)CN1C(=O)[C@@H](Cc1ccc(O)cc1)NC(C)=O)C(=O)N[C@@H](Cc1c[nH]c2ccccc12)C(N)=O [Compound No. 951, des(1)-Ac-[D-Tyr2,Hyp3,Alb4,Dap5,Cha6,Ala(cPr)8,Arg(Me)9,Trp10]MS10] (Ac-[dY][Hyp][Dap(CONH2)][Dap][Cha]G[Ala(cPr)][Arg(Me)]W-NH2) | 0.7
CCC[C@H](NC(=O)CNC(=O)[C@H](Cc1ccccc1)NC(=O)[C@@H](NC(=O)[C@H](CC(N)=O)NC(=O)[C@@H]1C[C@@H](O)CN1C(=O)[C@@H](Cc1ccc(O)cc1)NC(C)=O)[C@@H](C)O)C(=O)N[C@@H](CCCNC(=N)NC)C(=O)N[C@@H](Cc1c[nH]c2ccccc12)C(N)=O [Compound No. 918, des(1)-Ac-[D-Tyr2,Hyp3,Thr5,Nva8,Arg(Me)9,Trp10]MS10] (Ac-[dY][Hyp]NTFG[Nva][Arg(Me)]W-NH2) | 0.7
CNC(=N)NCCC[C@H](NC(=O)[C@H](CC(C)C)NC(=O)CNC(=O)[C@H](CC1CC1)NC(=O)[C@@H](NC(=O)[C@H](CC(N)=O)NC(=O)[C@@H]1C[C@@H](O)CN1C(=O)[C@@H](Cc1ccc(O)cc1)NC(C)=O)[C@@H](C)O)C(=O)N[C@@H](Cc1c[nH]c2ccccc12)C(N)=O [Compound No. 855, des(1)-Ac-[D-Tyr2,Hyp3,Thr5,Ala(cPr)6,Arg(Me)9,Trp10]MS10] (Ac-[dY][Hyp]NT[Ala(cPr)]GL[Arg(Me)]W-NH2) | 1.9
CNC(=N)NCCC[C@H](NC(=O)[C@@H](/C=C/CNC(=O)[C@H](Cc1ccccc1)NC(=O)[C@@H](NC(=O)[C@H](CNC(N)=O)NC(=O)[C@@H]1C[C@@H](O)CN1C(=O)[C@@H](Cc1ccc(O)cc1)NC(C)=O)[C@@H](C)O)CC(C)C)C(=O)N[C@@H](Cc1c[nH]c2ccccc12)C(N)=O [Compound No. 906, des(1)-Ac-[D-Tyr2,Hyp3,Alb4,Gly7Ψ((E)CH═CH)Leu8,Arg(Me)9,Trp10]MS10] (Ac-[dY][Hyp][Dap(CONH2)]TF[Glyψ(E-CHCH)Leu][Arg(Me)]W-NH2) | 0.6
CNC(=N)NCCC[C@H](NC(=O)[C@H](CC(C)C)NC(=O)CNC(=O)[C@H](Cc1ccccc1)NC(=O)[C@@H](NC(=O)[C@H](CC(N)=O)NC(=O)[C@H](CCC(=O)O)NC(=O)[C@@H](Cc1ccc(O)cc1)NC(C)=O)[C@@H](C)O)C(=O)N[C@@H](Cc1c[nH]c2ccccc12)C(N)=O [Compound No. 852, des(1)-Ac-[D-Tyr2,Glu3,Thr5,Arg(Me)9,Trp10]MS10] (Ac-[dY]ENTFGL[Arg(Me)]W-NH2) | 0.5
CNC(=N)NCCC[C@H](NC(=O)[C@H](CC(C)C)NC(=O)CC[C@H](O)[C@H](Cc1ccccc1)NC(=O)[C@@H](NC(=O)[C@H](CC(N)=O)NC(=O)[C@@H]1C[C@@H](O)CN1C(=O)[C@@H](Cc1ccc(O)cc1)NC(C)=O)[C@@H](C)O)C(=O)N[C@@H](Cc1c[nH]c2ccccc12)C(N)=O [Compound No. 857, des(1)-Ac-[D-Tyr2,Hyp3,Thr5,Phe6Ψ((S)CHOH—CH2)Gly7,Arg(Me)9,Trp10]MS10] (Ac-[dY][Hyp]NT[Hexanoyl(5S-NH,4S-OH,6-Ph)]L[Arg(Me)]W-NH2) | 1.2
des(1)-Ac-[D-Tyr2,Hyp3,Thr5,Gly7Ψ(CH2NH)Leu8,Arg(Me)9,Trp10]MS10 (Ac-[dY][Hyp]NTFGL[Arg(Me)]W-NH2; also: -CONH- between Gly and Leu replaced by -CH2NH-) [Compound No. 854] | 2.9
CNC(=N)NCCC[C@H](NC(=O)[C@H](CC(C)C)NC(=O)CNC(=O)[C@](C)(Cc1ccccc1)NC(=O)[C@@H](NC(=O)[C@H](CC(N)=O)NC(=O)[C@@H]1C[C@@H](O)CN1C(=O)[C@@H](Cc1ccc(O)cc1)NC(C)=O)[C@@H](C)O)C(=O)N[C@@H](Cc1c[nH]c2ccccc12)C(N)=O [Compound No. 869, des(1)-Ac-[D-Tyr2,Hyp3,Thr5,αMePhe6,Arg(Me)9,Trp10]MS10] (Ac-[dY][Hyp]NT[αMeF]GL[Arg(Me)]W-NH2) | 3.8
des(1)-Ac-[D-Tyr2,Hyp3,Alb4,Ala5,Cha6,Ala(cPr)8,Arg(Me)9,Trp10]MS10 (Ac-[dY][Hyp][Dap(CONH2)]A[Cha]G[Ala(cPr)][Arg(Me)]W-NH2; SMILES CNC(=N)NCCC[C@H](NC(=O)[C@H](CC1CC1)NC(=O)CNC(=O)[C@H](CC1CCCCC1)NC(=O)[C@H](C)NC(=O)[C@H](CNC(N)=O)NC(=O)[C@@H]1C[C@@H](O)CN1C(=O)[C@@H](Cc1ccc(O)cc1)NC(C)=O)C(=O)N[C@@H](Cc1c[nH]c2ccccc12)C(N)=O) [Compound No. 947] | 0.5
CCC[C@H](NC(=O)CNC(=O)[C@H](CC1CCCCC1)NC(=O)[C@@H](NC(=O)[C@H](CC(N)=O)NC(=O)[C@H](CCC(=O)O)NC(=O)[C@@H](Cc1ccc(O)cc1)NC(C)=O)[C@@H](C)O)C(=O)N[C@@H](CCCNC(=N)NC)C(=O)N[C@@H](Cc1c[nH]c2ccccc12)C(N)=O [Compound No. 924, des(1)-Ac-[D-Tyr2,Glu3,Thr5,Cha6,Nva8,Arg(Me)9,Trp10]MS10] (Ac-[dY]ENT[Cha]G[Nva][Arg(Me)]W-NH2) | 0.4
CNC(=N)NCCC[C@H](NC(=O)[C@H](CC1CC1)NC(=O)CNC(=O)[C@H](CC1CCCCC1)NC(=O)[C@@H](NC(=O)[C@H](CNC(N)=O)NC(=O)[C@@H]1C[C@@H](O)CN1C(=O)[C@@H](Cc1ccc(O)cc1)NC(C)=O)[C@@H](C)O)C(=O)N[C@@H](Cc1c[nH]c2ccccc12)C(N)=O [Compound No. 953, des(1)-Ac-[D-Tyr2,Hyp3,Alb4,Thr5,Cha6,Ala(cPr)8,Arg(Me)9,Trp10]MS10] (Ac-[dY][Hyp][Dap(CONH2)]T[Cha]G[Ala(cPr)][Arg(Me)]W-NH2) | 0.5
CC[C@H](NC(=O)[C@H](Cc1ccccc1)NC(=O)[C@@H](NC(=O)[C@H](CC(N)=O)NC(=O)[C@@H]1C[C@@H](O)CN1C(=O)[C@@H](Cc1ccc(O)cc1)NC(C)=O)[C@@H](C)O)C(=O)N[C@@H](CC(C)C)C(=O)N[C@@H](CCCNC(=N)NC)C(=O)N[C@@H](Cc1c[nH]c2ccccc12)C(N)=O [Compound No. 818, des(1)-Ac-[D-Tyr2,Hyp3,Thr5,Abu7,Arg(Me)9,Trp10]MS10] (Ac-[dY][Hyp]NTF[Abu]L[Arg(Me)]W-NH2) | 1.0
CNC(=N)NCCC[C@H](NC(=O)[C@H](CC(C)C)NC(=O)CNC(=O)[C@H](Cc1ccc(C)cc1)NC(=O)[C@@H](NC(=O)[C@H](CC(N)=O)NC(=O)[C@@H]1C[C@@H](O)CN1C(=O)[C@@H](Cc1ccc(O)cc1)NC(C)=O)[C@@H](C)O)C(=O)N[C@@H](Cc1c[nH]c2ccccc12)C(N)=O [Compound No. 875, des(1)-Ac-[D-Tyr2,Hyp3,Thr5,Phe(4Me)6,Arg(Me)9,Trp10]MS10] (Ac-[dY][Hyp]NT[Phe(4-Me)]GL[Arg(Me)]W-NH2) | 0.9
CNC(=N)NCCC[C@H](NC(=O)[C@H](CC1CC1)NC(=O)CNC(=O)[C@H](CC1CCCCC1)NC(=O)[C@@H](NC(=O)[C@H](CC(N)=O)NC(=O)[C@@H]1C[C@@H](O)CN1C(=O)[C@@H](Cc1ccc(O)cc1)NC(C)=O)[C@@H](C)O)C(=O)N[C@@H](Cc1c[nH]c2ccccc12)C(N)=O [Compound No. 894, des(1)-Ac-[D-Tyr2,Hyp3,Thr5,Cha6,Ala(cPr)8,Arg(Me)9,Trp10]MS10] (Ac-[dY][Hyp]NT[Cha]G[Ala(cPr)][Arg(Me)]W-NH2) | 0.5
CNC(=N)NCCC[C@H](NC(=O)[C@H](CC1CC1)NC(=O)CNC(=O)[C@H](CC1CCCCC1)NC(=O)[C@@H](NC(=O)[C@H](CC(N)=O)NC(=O)C(C)(C)NC(=O)[C@@H](Cc1ccc(O)cc1)NC(C)=O)[C@@H](C)O)C(=O)N[C@@H](Cc1c[nH]c2ccccc12)C(N)=O [Compound No. 912, des(1)-Ac-[D-Tyr2,Aib3,Thr5,Cha6,Ala(cPr)8,Arg(Me)9,Trp10]MS10] (Ac-[dY][Aib]NT[Cha]G[Ala(cPr)][Arg(Me)]W-NH2) | 0.6
CNC(=N)NCCC[C@H](NC(=O)[C@H](CC(C)C)NC(=O)[C@@H](NC(=O)[C@H](Cc1ccccc1)NC(=O)[C@@H](NC(=O)[C@H](CC(N)=O)NC(=O)[C@@H]1C[C@@H](O)CN1C(=O)[C@@H](Cc1ccc(O)cc1)NC(C)=O)[C@@H](C)O)C(C)C)C(=O)N[C@@H](Cc1c[nH]c2ccccc12)C(N)=O [Compound No. 847, des(1)-Ac-[D-Tyr2,Hyp3,Thr5,Val7,Arg(Me)9,Trp10]MS10] (Ac-[dY][Hyp]NTFVL[Arg(Me)]W-NH2) | 1.7
CNC(=N)NCCC[C@H](NC(=O)[C@H](CC(C)C)NC(=O)CNC(=O)[C@H](CC1CCCCC1)NC(=O)[C@@H](NC(=O)[C@H](CC(N)=O)NC(=O)[C@@H]1C[C@@H](O)CN1C(=O)[C@@H](Cc1ccc(O)cc1)NC(C)=O)[C@@H](C)O)C(=O)N[C@@H](Cc1c[nH]c2ccccc12)C(N)=O [Compound No. 822, des(1)-Ac-[D-Tyr2,Hyp3,Thr5,Cha6,Arg(Me)9,Trp10]MS10] (Ac-[dY][Hyp]NT[Cha]GL[Arg(Me)]W-NH2) | 0.3
CNC(=N)NCCC[C@H](NC(=O)[C@H](COC)NC(=O)CNC(=O)[C@H](CC1CCCCC1)NC(=O)[C@@H](NC(=O)[C@H](CC(N)=O)NC(=O)[C@@H]1C[C@@H](O)CN1C(=O)[C@@H](Cc1ccc(O)cc1)NC(C)=O)[C@@H](C)O)C(=O)N[C@@H](Cc1c[nH]c2ccccc12)C(N)=O [Compound No. 920, des(1)-Ac-[D-Tyr2,Hyp3,Thr5,Cha6,Ser(Me)8,Arg(Me)9,Trp10]MS10] (Ac-[dY][Hyp]NT[Cha]GS(Me)[Arg(Me)]W-NH2) | 0.5
CNC(=N)NCCC[C@H](NC(=O)[C@H](CC(C)C)NC(=O)CNC(=O)[C@H](CC1CCCCC1)NC(=O)[C@@H](NC(=O)[C@H](CC(N)=O)NC(=O)[C@H](CCC(=O)O)NC(=O)[C@@H](Cc1ccc(O)cc1)NC(C)=O)[C@@H](C)O)C(=O)N[C@@H](Cc1c[nH]c2ccccc12)C(N)=O [Compound No. 853, des(1)-Ac-[D-Tyr2,Glu3,Thr5,Cha6,Arg(Me)9,Trp10]MS10] (Ac-[dY]ENT[Cha]GL[Arg(Me)]W-NH2) | 0.6
